Measurements: publication PMC11119685, “Undescribed Cyclohexene and Benzofuran Alkenyl Derivatives from Choerospondias axillaris, a Potential Hypoglycemic Fruit” (Foods, 2024)
Like-named read-outs stand apart in the source and are kept apart here.

Biological target: α-glucosidase (Saccharomyces cerevisiae, UniProt P53341)
Test: α-Glucosidase inhibitory assay (pNPG substrate, absorbance at 405 nm)
Type: biochemical
Details: for inhibition at 50 µM: read-out: Inhibition Rate (in vitro α-glucosidase inhibitory activity); for α-glucosidase inhibitory activity, in words: qualitative statement, tested at 50 μM
Experimental: The α-glucosidase inhibitory activity was evaluated according to a previous method. In brief, α-glucosidase solution (0.025 U/mL, dissolved in 0.1 M phosphate-buffered saline (PBS) solution with a pH of 6.8), was mixed with 50 μM inhibitor and incubated at 37 °C for 10 min. pNPG solution (1 μM, dissolved in 0.1 M PBS solution) was added to the mixed solution and incubated at 37 °C for 40 min. Sodium carbonate (1 M) solution was added to terminate the reaction. […] The absorbance was recorded at 405 nm usin a microplate reader. The α-glucosidase inhibitory rate was calculated as follows:
Inhibitory rate% = [(A0 − A1)/A0)] × 100%, where:
A0 and A1 represent the absorbance of the blank group (containing enzyme, pNPG, PBS buffer, and DMSO), the sample group (containing enzyme, pNPG, PBS buffer, and samples), respectively. IC50 values were computed based on the Reed–Muench method.
All data were analyzed and presented as mean values ± SD from three independent assays (n = 3). The IC50 values were determined by Graph Pad Prism version 5 (University of California, San Diego, CA, USA).

[1] = at a concentration of 50 μM, means ± SD (n = 3)

Chain of α-glucosidase (P53341 whole entry): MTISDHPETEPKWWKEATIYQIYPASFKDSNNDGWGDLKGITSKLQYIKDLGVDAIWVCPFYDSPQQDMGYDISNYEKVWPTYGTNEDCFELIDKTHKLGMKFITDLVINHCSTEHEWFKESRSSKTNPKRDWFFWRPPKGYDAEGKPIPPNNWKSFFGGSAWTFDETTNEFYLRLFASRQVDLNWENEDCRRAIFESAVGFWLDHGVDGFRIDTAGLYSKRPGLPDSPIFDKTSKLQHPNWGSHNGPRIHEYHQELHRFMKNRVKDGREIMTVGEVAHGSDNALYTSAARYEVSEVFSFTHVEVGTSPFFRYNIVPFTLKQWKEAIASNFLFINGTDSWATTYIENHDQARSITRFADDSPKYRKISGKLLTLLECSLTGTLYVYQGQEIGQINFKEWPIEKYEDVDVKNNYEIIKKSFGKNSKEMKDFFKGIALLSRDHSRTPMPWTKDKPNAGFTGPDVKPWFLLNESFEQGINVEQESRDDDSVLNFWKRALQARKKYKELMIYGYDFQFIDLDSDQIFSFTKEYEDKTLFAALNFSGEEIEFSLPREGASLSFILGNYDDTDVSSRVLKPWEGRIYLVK

SMILES	inhibition at 50 µM [1] [%]	α-glucosidase inhibitory activity, in words	inhibition at 50 µM [%]
COc1cc(C2OCC3C(c4cc(OC)c(O)c(OC)c4)OCC23)cc(OC)c1O (centres unmarked) [Compound 18, lirioresinol]	4.8 ± 0.38	weak inhibitory activity	–
O=C1C[C@@H](c2ccc(O)cc2)Oc2cc(O)cc(O)c21 [Compound 13, naringenin]	–	–	65.1 ± 2
CCCCC=CCCCCCCCCCCCCCC1(O)CC(O)C=CC1O [Compound 3, (1S,2R,4S)-2-[14′(Z)-nonadecenyl]-cyclohex-5-en-1,2,4-triol]	-13.6 ± 1.7	–	–
CCCCC=CCCCCCCCCCCCC1(O)CC(O)C=CC1O [Compound 2, (1S,2R,4S)-2-[12′(Z)-heptadecenyl]-cyclohex-5-en-1,2,4-triol]	-12.4 ± 0.66	–	–
Oc1cc(O)c2c(c1)O[C@H](c1ccc(O)c(O)c1)[C@@H](O)C2 [Compound 9, catechin]	61.1 ± 1.6	notable α-glucosidase inhibition	–
O=C1C[C@@H](c2ccc(O)c(O)c2)Oc2cc(O)cc(O)c21 [Compound 12, eriodictyol]	66.6 ± 0.92	–	–
CCCCC=CCCCCCCCCCC(O)CC1=CC(=O)CCC1O [Compound 4, (4R,2′R)-dihydroxy-3-[12′(Z)-heptadecenyl]-2-cyclohexenone]	11.1 ± 1.1	–	–
CCCCC=CCCCCCCCCCC(O)CC1=CC(=O)CC(O)C1O [Compound 5, (4S,5S,2′R)-trihydroxy-3-[12′(Z)-heptadecenyl]-2-cyclohexenone]	-11.2 ± 0.94	–	–
CCCC/C=C\CCCCCCCc1cc2cc(O)ccc2o1 [Compound 7, 2-[8′(Z)-tridecenyl]-benzofuran-5-ol]	96.7 ± 0.51	–	–
C[C@@H]1O[C@@H](Oc2c(-c3ccc(O)c(O)c3)oc3cc(O)cc(O)c3c2=O)[C@H](O)[C@H](O)[C@H]1O [Compound 14, quercetin-3-O-α-L-rhamnoside]	–	comparable α-glucosidase inhibitory	26.2 ± 1.3
COc1cc(C[C@@H](CO)[C@H](CO)Cc2ccc(O)c(OC)c2)ccc1O [Compound 17, (−)-secoisolariciresinol]	37.6 ± 0.12	weak inhibitory activity	–
COc1cc([C@H]2c3cc(O)c(OC)cc3C[C@@H](CO)[C@@H]2CO)ccc1O [Compound 15, (+)-isolariciresinol]	16.6 ± 0.57	weak inhibitory activity	–
COc1cc([C@@H]2c3c(cc(OC)c(O)c3OC)C[C@H](CO)[C@H]2CO)cc(OC)c1O [Compound 16, (−)-lyoniresinol]	7.5 ± 1.4	weak inhibitory activity	–
O=C1c2c(O)cc(O)cc2O[C@H](c2ccc(O)cc2)[C@H]1O [Compound 11, dihydrokaempferol]	43.8 ± 1.3	comparable α-glucosidase inhibitory	–
CCCC/C=C\CCCCCCCCCCCc1cc2cc(O)ccc2o1 [Compound 8, choerosponol A]	98.7 ± 0.2	–	–
O=C1c2c(O)cc(O)cc2O[C@H](c2ccc(O)c(O)c2)[C@H]1O [Compound 10, dihydroquercetin]	–	comparable α-glucosidase inhibitory	36.4 ± 0.72
CCCC/C=C\CCCCCCCCCc1cc2cc(O)ccc2o1 [Compound 6, 2-[10′(Z)-pentadecenyl]-benzofuran-5-ol]	97.7 ± 0.19	–	–
CCCCC=CCCCCCCCCCC1(O)CC(O)CCC1O [Compound 1, (1S,2R,4S)-2-[10′(Z)-pentadecenyl]-cyclohexane-1,2,4-triol]	-8.1 ± 2.4	–	–
